Source: patent US9138439B2, “Methods and compositions for modulating P300/CBP activity” (The Wistar Institute, priority 2007, dated 2015)
Changes are numbered by the printed parent chain. Non-standard residues stand in square brackets, D forms with d. No end group written: not given here. Cit = NC(=O)NCCC[C@H](N)C(=O)O

Tests used:
[1] = tested on: p300/CBP HAT; assay: direct radioactive assay measuring 14C-incorporation from acetyl-CoA into H4 tail peptide; type: biochemical, human; settings: inhibitor concentration not given
Experimental: (§1) In accordance with the methods of the present invention, compounds were screened to identify modulators of p300/CBP HAT activity.
(§2) HAT Assays. HAT activity was determined by either a rapid and nonradioactive HAT assay that measures the production of CoASH by its facile reaction with DTNB, or by a radioactive assay (Lau, et al. (2000) supra; Thompson, et al. (2000) supra). […] For the radioactive assay, the concentration of [^14C]acetyl-CoA was fixed at 20 μM when measuring the steady-state kinetic parameters for peptide substrates.

[2] = tested on: p300/CBP HAT; assay: coupled spectrophotometric assay that measures CoASH production in real-time; type: biochemical, human; settings: inhibitor concentration not given
Description: as §1

[3] = molecular target: T1, wild-type p300 HAT (Homo sapiens, UniProt Q09472, DEL1523-1554/M1652G); assay: HAT assay, steady state kinetic parameters of H4 tail peptide analog substrates, wild-type p300 HAT; type: biochemical; settings: peptide as substrate of wild-type p300 HAT
T1 construct: linking the natural N- and C-termini (residues 1287 and 1666) of the HAT domain; made in house
T1 sequence (Q09472 with tags, fused parts or gaps DEL1523-1554/M1652G): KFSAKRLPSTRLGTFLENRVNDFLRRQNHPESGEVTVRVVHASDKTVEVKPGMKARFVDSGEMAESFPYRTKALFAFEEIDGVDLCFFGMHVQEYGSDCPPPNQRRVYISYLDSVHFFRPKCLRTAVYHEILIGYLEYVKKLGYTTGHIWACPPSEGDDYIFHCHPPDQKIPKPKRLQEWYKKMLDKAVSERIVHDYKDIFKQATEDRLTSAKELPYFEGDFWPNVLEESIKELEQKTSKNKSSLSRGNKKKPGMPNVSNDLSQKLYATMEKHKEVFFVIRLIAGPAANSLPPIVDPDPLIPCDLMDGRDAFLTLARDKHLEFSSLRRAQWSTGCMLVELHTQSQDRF
Experimental: as §2
(§3) To test the influence of electrostatic interactions on substrate sequence selection, the steady state kinetic parameters for several synthetic H4 tail peptide analogs was determined (listed in Table 5). In H4-15, there are two other basic residues (Lys5 and Lys12) near the target Lys8. It has previously been shown that either one of the nearby Lys (or Arg replacements) is sufficient to permit efficient acetylation by full-length p300 (Thompson, et al. (2001) supra). Here, the effects of replacing Lys5 and Lys12 with Ala, the neutral residue hydrogen bonding citrulline, or Asp were compared for wild-type and mutant p300 HAT as indicated in Table 5. Analysis of the single lysine substrate, analogous to the Lys-CoA component, which contains both amino and carboxyl groups derivatized as amides (Table 5), was also conducted. Km of these substrates were generally too high to be measured (>1000 μM) under the experimental conditions, highlighting the important role of the nearby positively charged residues for substrate interaction. As shown Table 5, the 22-fold V/K difference between wild-type p300 HAT protein and the D1625R/D1628R mutant for H4-15 substrate dropped to 6-fold when using Ac-Lys-NH2 as substrate. […] Consistent with this idea, H4-12^K5A/K12A or H4-12^K5Cit/K12A which lack proximal basic residues but contain neutral hydrogen bonding residues show kinetic behavior similar to that of Ac-Lys-NH2 (Table 5).

[4] = molecular target: T2, D1625R/D1628R p300 HAT (Homo sapiens, UniProt Q09472, D1625R/D1628R/DEL1523-1554/M1652G); assay: HAT assay, steady state kinetic parameters of H4 tail peptide analog substrates, D1625R/D1628R p300 HAT mutant; type: biochemical; settings: for V/K(M^−1s^−1) for D1625R/D1628R: peptide as substrate of D1625R/D1628R p300 HAT mutant; for V/K difference between wild-type p300 HAT protein and the D1625R/D1628R mutant: ratio wild-type versus mutant for the given substrate
T2 construct: linking the natural N- and C-termini (residues 1287 and 1666) of the HAT domain; made in house
T2 sequence (Q09472 with tags, fused parts or gaps DEL1523-1554/D1625R/D1628R/M1652G): T1 sequence (Q09472 with tags, fused parts or gaps DEL1523-1554/M1652G) with D307R, D310R
Experimental: as §2, §3

[5] = molecular target: p300/CBP (Homo sapiens, UniProt Q09472); settings: Lau, et al. (2000); cited from earlier work
[6] = tested on: AANAT; assay: specificity test against other acetyltransferases: AANAT; type: biochemical
Description: (§4) The three small molecule p300 HAT inhibitors (7, 17.2 and 17.3) identified using virtual library screening provided new leads for further development. […] From the docking model of 7 to p300 HAT (FIG. 11), important hydrogen bonding roles are indicated for the side-chains of Arg1410, Thr1411, Trp1466 (all interacting with the inhibitor carboxylate) as well as the side-chain of Tyr1467 (hydrogen bonding to the nitro group). While Arg1410 and Tyr1467 are critical for CoA binding and/or catalysis, mutation of Trp1466 is well-tolerated. To explore the specificity of the small molecule HAT inhibitors, these compounds are tested against other acetyltransferases (PCAF, AANAT, RTT109, EsaI), which assists in the prioritization of candidates for pharmacologic applications.

[7] = molecular target: PCAF (Homo sapiens, UniProt Q92831); assay: specificity test against other acetyltransferases: PCAF; type: biochemical
Description: as §4

Sequence of p300/CBP (Q09472 whole entry): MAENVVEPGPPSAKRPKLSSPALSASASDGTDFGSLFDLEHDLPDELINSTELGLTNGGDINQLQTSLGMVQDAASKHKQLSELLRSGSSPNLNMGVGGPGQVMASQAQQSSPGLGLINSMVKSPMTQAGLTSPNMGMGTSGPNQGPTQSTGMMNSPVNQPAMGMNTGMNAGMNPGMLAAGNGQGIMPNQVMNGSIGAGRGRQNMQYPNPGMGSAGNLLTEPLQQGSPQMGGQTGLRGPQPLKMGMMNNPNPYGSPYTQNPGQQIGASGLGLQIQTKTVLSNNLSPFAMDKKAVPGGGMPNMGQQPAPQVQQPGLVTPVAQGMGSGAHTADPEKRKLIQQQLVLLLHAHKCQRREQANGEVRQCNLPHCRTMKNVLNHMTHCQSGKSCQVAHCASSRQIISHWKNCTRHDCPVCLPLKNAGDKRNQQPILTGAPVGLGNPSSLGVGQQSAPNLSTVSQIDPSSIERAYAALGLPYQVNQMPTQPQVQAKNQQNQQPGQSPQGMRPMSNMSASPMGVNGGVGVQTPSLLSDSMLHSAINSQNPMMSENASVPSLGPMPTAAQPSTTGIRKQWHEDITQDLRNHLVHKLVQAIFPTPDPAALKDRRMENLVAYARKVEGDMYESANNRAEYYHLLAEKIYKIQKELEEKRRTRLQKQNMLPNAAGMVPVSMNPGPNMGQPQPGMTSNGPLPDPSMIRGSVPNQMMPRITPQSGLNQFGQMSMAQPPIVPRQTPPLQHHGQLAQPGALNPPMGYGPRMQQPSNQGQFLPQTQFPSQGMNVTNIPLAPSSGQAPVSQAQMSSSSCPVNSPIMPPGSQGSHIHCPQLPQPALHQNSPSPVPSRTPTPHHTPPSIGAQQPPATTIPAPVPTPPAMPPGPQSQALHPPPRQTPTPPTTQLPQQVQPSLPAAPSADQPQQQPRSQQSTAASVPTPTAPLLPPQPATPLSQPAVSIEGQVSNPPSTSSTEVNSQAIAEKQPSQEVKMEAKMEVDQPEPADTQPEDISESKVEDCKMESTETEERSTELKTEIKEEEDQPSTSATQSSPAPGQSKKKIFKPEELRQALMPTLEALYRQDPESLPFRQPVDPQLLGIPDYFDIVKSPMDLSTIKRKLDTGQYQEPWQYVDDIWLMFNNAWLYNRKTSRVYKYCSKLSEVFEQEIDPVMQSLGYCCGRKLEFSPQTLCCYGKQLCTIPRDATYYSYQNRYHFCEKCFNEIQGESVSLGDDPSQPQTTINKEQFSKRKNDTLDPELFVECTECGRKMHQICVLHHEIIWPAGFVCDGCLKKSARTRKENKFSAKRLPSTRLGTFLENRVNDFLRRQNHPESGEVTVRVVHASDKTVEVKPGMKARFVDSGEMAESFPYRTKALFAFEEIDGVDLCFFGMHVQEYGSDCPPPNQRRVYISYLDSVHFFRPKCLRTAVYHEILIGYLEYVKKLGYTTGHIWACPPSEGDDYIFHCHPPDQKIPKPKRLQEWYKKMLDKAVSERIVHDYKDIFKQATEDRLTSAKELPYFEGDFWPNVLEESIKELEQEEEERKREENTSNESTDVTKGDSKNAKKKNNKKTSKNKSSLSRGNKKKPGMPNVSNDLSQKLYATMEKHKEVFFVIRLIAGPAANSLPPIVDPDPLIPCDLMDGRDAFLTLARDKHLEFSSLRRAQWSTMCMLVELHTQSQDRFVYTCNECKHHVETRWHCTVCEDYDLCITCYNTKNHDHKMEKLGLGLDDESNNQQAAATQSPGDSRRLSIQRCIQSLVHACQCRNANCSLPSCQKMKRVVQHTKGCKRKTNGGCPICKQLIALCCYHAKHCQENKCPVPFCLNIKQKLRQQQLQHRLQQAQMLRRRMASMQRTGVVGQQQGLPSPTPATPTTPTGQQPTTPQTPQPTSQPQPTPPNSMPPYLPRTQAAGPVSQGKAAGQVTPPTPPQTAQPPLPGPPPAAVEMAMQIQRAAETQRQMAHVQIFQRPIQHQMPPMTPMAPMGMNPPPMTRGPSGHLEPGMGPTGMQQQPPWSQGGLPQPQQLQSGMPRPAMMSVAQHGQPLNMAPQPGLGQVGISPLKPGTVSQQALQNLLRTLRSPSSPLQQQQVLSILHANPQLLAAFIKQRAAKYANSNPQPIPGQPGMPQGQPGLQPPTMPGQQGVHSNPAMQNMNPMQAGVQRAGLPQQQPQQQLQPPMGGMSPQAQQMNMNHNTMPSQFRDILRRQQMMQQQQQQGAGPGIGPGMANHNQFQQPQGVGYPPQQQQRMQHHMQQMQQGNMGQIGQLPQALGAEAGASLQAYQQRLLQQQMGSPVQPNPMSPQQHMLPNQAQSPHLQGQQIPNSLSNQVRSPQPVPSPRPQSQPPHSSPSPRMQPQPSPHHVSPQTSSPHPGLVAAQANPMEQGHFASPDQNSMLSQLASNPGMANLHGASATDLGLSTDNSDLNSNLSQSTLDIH
Sequence of PCAF (Q92831 whole entry, species assumed): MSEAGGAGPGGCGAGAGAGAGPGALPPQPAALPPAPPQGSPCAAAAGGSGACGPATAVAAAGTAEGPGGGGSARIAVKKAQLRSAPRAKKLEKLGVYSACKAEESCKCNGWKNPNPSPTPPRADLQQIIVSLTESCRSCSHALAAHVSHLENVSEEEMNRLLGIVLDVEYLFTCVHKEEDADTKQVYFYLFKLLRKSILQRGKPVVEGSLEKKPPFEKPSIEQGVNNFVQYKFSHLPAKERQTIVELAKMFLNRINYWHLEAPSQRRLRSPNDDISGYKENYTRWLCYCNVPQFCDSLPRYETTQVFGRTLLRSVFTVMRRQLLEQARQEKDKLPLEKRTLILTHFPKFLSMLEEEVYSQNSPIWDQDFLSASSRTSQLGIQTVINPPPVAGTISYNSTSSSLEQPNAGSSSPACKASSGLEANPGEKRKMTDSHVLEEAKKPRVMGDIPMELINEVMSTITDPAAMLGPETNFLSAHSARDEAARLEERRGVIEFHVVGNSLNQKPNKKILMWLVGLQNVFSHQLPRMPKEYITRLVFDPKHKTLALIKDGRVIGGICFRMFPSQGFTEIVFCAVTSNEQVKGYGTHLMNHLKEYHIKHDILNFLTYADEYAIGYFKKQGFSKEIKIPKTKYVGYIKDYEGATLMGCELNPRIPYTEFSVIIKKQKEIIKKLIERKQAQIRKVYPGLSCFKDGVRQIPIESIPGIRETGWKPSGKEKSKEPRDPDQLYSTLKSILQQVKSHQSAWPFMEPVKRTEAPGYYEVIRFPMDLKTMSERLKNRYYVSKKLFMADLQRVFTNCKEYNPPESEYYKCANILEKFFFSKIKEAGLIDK

Row | Compound | % Inhibition Direct [1] [%] | % Inhibition Coupled [2] [%] | melting point [°C] | further results
1 | CC1=NN(CCCCC(=O)O)C(=O)/C1=C\c1ccc(-c2cc(C)c(C)cc2[N+](=O)[O-])o1 [Compound 9] | 55.8 | 92.6 |  | 
2 | CC1=NN(c2ccc(Cl)cc2)C(=O)/C1=C\c1ccc(-c2cc(C)c(C)cc2[N+](=O)[O-])o1 [Compound 6i] |  | 13.9 | 220 to 223 | 
3 | CC1=NN(c2ccc(C(=O)O)cc2)C(=O)/C1=C\c1ccc(-c2ccccc2)o1 [Compound 6a] | 71.5 | 33.7 | 306 to 309 | 
4 | CC(=O)NC(CCCCN)C(N)=O (stereo not drawn) [Ac-Lys-NH2, CH3CO—NH-Lys-CONH2] |  |  |  | V/K(M^−1s^−1) for W.T. [3]: 1843 ± 50 M⁻¹ s⁻¹; V/K(M^−1s^−1) for D1625R/D1628R [4]: 326 ± 10 M⁻¹ s⁻¹; V/K difference between wild-type p300 HAT protein and the D1625R/D1628R mutant [4]: 6 fold
5 | CC1=NN(c2ccc(C(N)=O)cc2)C(=O)/C1=C\c1ccc(-c2cc(C)c(C)cc2[N+](=O)[O-])o1 [Compound 6h] | 94.7 | 40.6 | 273 to 275 | 
6 | CC1=NN(c2ccc(S(=O)(=O)O)cc2)C(=O)/C1=C\c1ccc(-c2cc(C)c(C)cc2[N+](=O)[O-])o1 [Compound 6f] | 97.2 | 57.4 | 210 to 213 | 
7 | CCOC(=O)c1ccccc1-c1ccc(/C=C2\C(=O)N(c3ccc(C(=O)O)cc3)N=C2C)o1 [Compound 6c] | 8.3 | 38.1 | 249 to 251 | 
8 | RGXGGKGLGAGA (RG[Cit]GGKGLGAGA) [H4-12(K5X/K12A)] |  |  |  | V/K(M^−1s^−1) for W.T. [3]: 5247 ± 60 M⁻¹ s⁻¹; V/K(M^−1s^−1) for D1625R/D1628R [4]: 738 ± 20 M⁻¹ s⁻¹
9 | RGAGGKGLGAGA [H4-12(K5A/K12A)] |  |  |  | V/K(M^−1s^−1) for W.T. [3]: 3824 ± 180 M⁻¹ s⁻¹; V/K(M^−1s^−1) for D1625R/D1628R [4]: 515 ± 15 M⁻¹ s⁻¹
10 | GRGDGGKGLGDGGAK [H4-15(K5D/K12D)] |  |  |  | V/K(M^−1s^−1) for W.T. [3]: 636 ± 0 M⁻¹ s⁻¹; V/K(M^−1s^−1) for D1625R/D1628R [4]: 422 ± 20 M⁻¹ s⁻¹; V/K difference between wild-type p300 HAT protein and the D1625R/D1628R mutant [4]: ≤ 2 fold
11 | CC(=O)N[C@@H](CCCCNC(=O)CSCCNC(=O)CCNC(=O)[C@H](O)C(C)(C)COP(=O)(O)OP(=O)(O)OC[C@H]1O[C@@H](n2cnc3c(N)ncnc32)[C@H](O)[C@@H]1OP(=O)(O)O)C(N)=O [Lys-CoA] |  |  |  | inhibition of p300/CBP [5]: powerful and selective inhibitor
12 | CCOC(=O)c1ccc(N2N=C(C)/C(=C/c3ccc(-c4cc(C)c(C)cc4[N+](=O)[O-])o3)C2=O)cc1 [Compound 6d] |  | 0 | 192 to 194 | 
13 | GRGKGGKGLGKGGAK (Ac-GRGKGGKGLGKGGAK) [Compound H4-15] |  |  |  | V/K(M^−1s^−1) for W.T. [3]: 25000 ± 1643 M⁻¹ s⁻¹; V/K(M^−1s^−1) for D1625R/D1628R [4]: 1162 ± 60 M⁻¹ s⁻¹; V/K difference between wild-type p300 HAT protein and the D1625R/D1628R mutant [4]: 22 fold
14 | CC1=NN(c2ccc(C(=O)O)cc2)C(=O)/C1=C\c1ccc(-c2ccccc2F)o1 [Compound 6328730] | 67.9 | 90.5 |  | 
15 | CC1=NN(c2cccc(C(=O)O)c2)C(=O)/C1=C\c1ccc(-c2cc(C)c(C)cc2[N+](=O)[O-])o1 [Compound 6e] | 96.4 | 63.4 | 260 to 262 | 
16 | CC1=NN(c2ccc(C(=O)O)cc2)C(=O)/C1=C\c1ccc(-c2ccc([N+](=O)[O-])cc2)o1 [Compound 6b] | 33.8 | 35.6 | 338 to 341 | 
17 | CC1=NN(c2ccc(C(=O)O)cc2)C(=O)C1 [CM-26] |  | 16.3 |  | 
18 | CC1=NN(c2ccc(C(=O)O)cc2)C(=O)/C1=C\c1ccc(-c2cc(C)ccc2[N+](=O)[O-])o1 [Compound 40174] | 79.5 |  |  | 
19 | CC1=NN(c2ccc(C(=O)O)cc2)C(=O)/C1=C\c1ccc(-c2cc(C)c(C)cc2[N+](=O)[O-])o1 [Compound 7] |  | 85.9 |  | % inhibition of AANAT [6]: 4.8%; % inhibition of PCAF [7]: 0%
